Experimental findings from publication PMC11483813, “Bombesin-Targeted Delivery of β-Carboline-Based Ir(III) and Ru(II) Photosensitizers for a Selective Photodynamic Therapy of Prostate Cancer” (Inorganic Chemistry, 2024) are described below.

SMILES strings stand for the structures.

Data set [1] can be described thus: Photocatalytic singlet oxygen generation (ABDA probe). It counts as physicochemical. The conditions noted are these: H2O:DMSO (1:1), blue light 460 nm, rose bengal as reference. From the text:
Singlet oxygen is thought to be the main cytotoxic species in type II PDT processes. Therefore, we determined the ability of Ir-Me and Ru-Me to generate ^1O2 under photocatalytic conditions, as illustrative examples of our PSs. As shown in Figures 6 and S51, we monitored by means of UV–vis spectroscopy the oxidation of 9,10-anthracenediyl bis(methylene)dimalonic acid (ABDA, 8x 10^–5 M) in the presence of atmospheric oxygen, using Ir-Me (10^–5 M) as the PS and H2O:DMSO (1:1) as the solvent system under blue light exposure (λir = 460 nm). […] Moreover, the singlet oxygen quantum yield values (ΦΔ) of Ir-Me and Ru-Me were determined using rose bengal (ΦΔ = 0.75) as the reference. […]
an integrating sphere. For the determination of the luminescence lifetime, the fluorescence decay was measured on a FLS980 spectrofluorometer equipped with a TSCPC laser (Ir(III) complexes: λ ex = 405 nm; Ru(II) complexes: λ ex = 450 nm) and a REDPMT detector. The F980 spectrometer operating software was used to collect and process luminescence lifetime data.
Photostability of Ir(III) and Ru(II) complexes. The photostability of Ir(III) or Ru(II) complexes was monitored by 1H RMN. […]
Singlet oxygen generation. The capacity of Ir-Me and Ru-Me to generate singlet oxygen ( 1O2) was determined by an indirect method using 9,10-anthracenediyl-bis(methylene) dimalonic acid (ABDA) as a probe. […]

In data set [2] the test system is PC-3 cells. Briefly: Apoptosis assay, annexin V/propidium iodide. The class given is cell-based, human. To be noted: five times IC50,light, photoactivated, 24 h. The protocol:
Mitochondria play an important role in the regulation of apoptosis. Alterations in the MMP can cause the release of apoptotic factors, such as cytochrome c, which activates the caspase cascade, leading to programmed cell death.[66],[67] In order to elucidate whether the toxic effect of the compounds at the mitochondrial level triggers cell death by apoptosis, a dual annexin V/propidium iodide labeling experiment was performed. The initial stages of apoptosis are characterized by alterations in the symmetry of phospholipids in the cytoplasmic membrane, which can be detected using annexin V (An). The late stages also include disruption of the cell membrane, permitting the penetration of propidium iodide (PrI), which emits red fluorescence when bound to DNA. […]
Figure 13 Cell death mechanism. […] After 24 h, the percentage of viable, necrotic, early apoptotic, and late apoptotic cells was analyzed by flow cytometry using propidium iodide and annexin V staining. […]
PC-3 cells were seeded into 12-well plates at a density of 100000 cells/well. […] The samples were immediately analyzed using a Novocyte flow cytometer. Annexin-FITC staining was detected at a wavelength of 520 nm, and propidium iodide was detected at 617 nm. The fluorescence emission of 10000 cells per sample was measured, and the percentages of live, early apoptotic, late apoptotic, and necrotic cell populations were determined.

In the case of `COC(=O)/C=C/c1ccc(-c2nccc3c4ccccc4n(C)c23)nc1.[Cl-].[Ir+3].[c-]1ccccc1-c1ccccn1.[c-]1ccccc1-c1ccccn1` [Ir-Me], the “singlet oxygen quantum yield (ΦΔ)” value in data set [1] stood at 4%. In data set [2], the “cells in early apoptosis” value amounted to 11.9% and the “cells in late apoptosis” value was found to be 41.7%.
